Results on 29 molecules are retold here after patent US10597366B2, “Aryl ethers and uses thereof” (Peloton Therapeutics, Inc., priority 2013, dated 2020).

The EC50 is the concentration at which the effect is half-maximal.

In test [1] the test system is VEGFA concentration in medium of 786-O cells. The test can be described thus: VEGF ELISA Assay. The conditions noted are these: Homo sapiens. It counts as cell-based. As for the experimental part: Each concentration had duplicated wells. About 20 hours later, medium was removed by suction and each well was supplied with 180 μL of growth medium. About 20 μl freshly-made 10× compound stocks were added to each well. […] The EC50 was calculated by GraphPad Prism using the dose-response-inhibition (four parameter) equation. The cell seeded plate was then subjected to CellTiter-Glo luminescence cell viability assay (Promega) by adding 50 μL of Celltiter Glo reagent into each well and shaking the plate for 8 minutes at 550 rpm (Thermomixer R, Eppendorf) then read luminescence signal in plate reader (3 second delay, 0.5 second/well integration time, Synergy 2 multi Detection Microplate reader) immediately.
Background: In an ELISA, binding on a coated surface is turned into a signal by an enzyme label.

The subject of test [2] is 786-O-Hif-Luc cells (luciferase gene driven by multiple HIF responsive elements). The test can be described thus: Luciferase Assay. It counts as cell-based. The conditions noted are these: 24 h, read-out: Mean Luciferease EC50. As for the experimental part: A pool of infected cells were then selected against 2 μg/mL of puromycin (P8833, Sigma) for 10 days followed by limited dilution to select single clones.
Each concentration was tested in triplicate. After about 24 hours, luciferase activity was determined using ONE-Glo Luciferase Assay Reagent (E6110, Promega) following the manufacturer's recommended procedure. EC50 were calculated by using Dotmatics software.

[3] abbreviates: 786-0, 786-O cells, read-out: Mean VEGF ELISA EC50.
Setting [4] is: 786-O-Hif-Luc cells, about 24 hours.
Setting [5] is: 786-0, read-out: Mean VEGF ELISA EC50.

SMILES strings stand for the structures. Where two headings read alike, the source gives them in different places.

`O=S(=O)(c1ccc(Oc2cncc(F)c2)c2c1[C@H](O)C(F)(F)C2)C(F)(F)F` [Compound 309, (S)-2,2-difluoro-4-((5-fluoropyridin-3-yl)oxy)-7-((trifluoromethyl)sulfonyl)-2,3-dihydro-1H-inden-1-ol]: the EC50 turned out to be 0.026 µM in test [1] (setting [3]) and 0.009 µM in test [2] (setting [4]).
On the same counts, the results for `O=S(=O)(c1ccc(Oc2cc(F)c[n+]([O-])c2)c2c1[C@H](O)C(F)(F)C2)C(F)(F)F` [Compound 310, (S)-3-((2,2-difluoro-1-hydroxy-7-((trifluoromethyl)sulfonyl)-2,3-dihydro-1H-inden-4-yl)oxonio)-5-fluoropyridine 1-oxide] are 0.14 µM and 0.11 µM.
On the same counts, the results for `O=S(=O)(c1ccc(Oc2ccc(F)c(F)c2)c2c1[C@H](O)C(F)(F)C2)C(F)F` [Compound 196, (S)-7-((Difluoromethyl)sulfonyl)-4-(3,4-difluorophenoxy)-2,2-difluoro-2,3-dihydro-1H-inden-1-ol] are 0.047 µM and 0.046 µM.
For the molecule `N#Cc1cc(F)cc(Oc2ccc(S(=O)(=O)C(F)F)cc2Br)c1` [Compound 132, 3-(2-Bromo-4-((difluoromethyl)sulfonyl)phenoxy)-5-fluorobenzonitrile], the values for the EC50 in test [1] (setting [3]) and in test [2] (setting [4]) were 0.68 µM and 1.4 µM, respectively.
Regarding `N#Cc1cccc(Oc2ccc(S(=O)(=O)C(F)(F)F)c(C#N)c2Br)c1` [Compound 99, 2-Bromo-3-(3-cyanophenoxy)-6-((trifluoromethyl)sulfonyl)benzonitrile], the results for the EC50 in test [1] (setting [3]) and in test [2] (setting [4]) were 0.55 µM and 0.42 µM, respectively.
Turning to `O=S(=O)(c1ccc(Oc2cc(F)cc(Cl)c2)c(Cl)c1CO)C(F)F` [Compound 41, (2-Chloro-3-(3-chloro-5-fluorophenoxy)-6-((difluoromethyl)sulfonyl)phenyl)methanol], the EC50 in test [1] (setting [5]) was 0.57 µM; in test [2], 0.4 µM.
As for `N#Cc1cc(Oc2ccc(S(=O)(=O)C(F)(F)F)c3c2CC(F)(F)[C@H]3O)ccc1F` [Compound 228, (S)-5-((2,2-Difluoro-1-hydroxy-7-((trifluoromethyl)sulfonyl)-2,3-dihydro-1H-inden-4-yl)oxy)-2-fluorobenzonitrile], the EC50 in test [1] (setting [3]) was determined as 0.028 µM; in test [2] (setting [4]), 0.033 µM.
In the case of `Cc1c(S(=O)(=O)C(F)F)ccc(Oc2cc(F)cc(F)c2)c1C#N` [Compound 34, 3-((Difluoromethyl)sulfonyl)-6-(3,5-difluorophenoxy)-2-methylbenzonitrile], the EC50 stood at 0.46 µM in test [1] (setting [3]) and 0.52 µM in test [2] (setting [4]).
The corresponding values for `N#Cc1c(S(=O)(=O)C(F)(F)F)ccc(Oc2cc(F)cc(Cl)c2)c1Br` [Compound 98, 2-Bromo-3-(3-chloro-5-fluorophenoxy)-6-((trifluoromethyl)sulfonyl)benzonitrile] are 1.58 µM and 3.3 µM.
The corresponding values for `O=S(=O)(c1ccc(Oc2cc(F)cc(Cl)c2)c2c1[C@H](O)C(F)(F)C2)C(F)F` [Compound 158, (1S)-4-(3-Chloro-5-fluoro-phenoxy)-7-(difluoromethylsulfonyl)-2,2-difluoro-indan-1-ol] are 0.006 µM and 0.005 µM.
In the case of `O=S(=O)(c1ccc(Oc2ccc(F)cc2)c2c1[C@H](O)C(F)(F)C2)C(F)(F)F` [Compound 230, (S)-2,2-Difluoro-4-(4-fluorophenoxy)-7-((trifluoromethyl)sulfonyl)-2,3-dihydro-1H-inden-1-ol], the EC50 turned out to be 0.029 µM in test [1] (setting [3]) and 0.016 µM in test [2] (setting [4]).
On to `CS(=O)(=O)c1ccc(Oc2cncc(C#N)c2)c2c1[C@H](O)C(F)(F)C2` [Compound 325, (S)-5-((2,2-Difluoro-1-hydroxy-7-(methylsulfonyl)-2,3-dihydro-1H-inden-4-yl)oxy)nicotinonitrile], for which the concentration for a half-maximal effect (EC50) in test [1] (setting [3]) stood at 0.15 µM; in test [2] (setting [4]) it was 0.49 µM.
In the case of `CS(=O)(=O)c1ccc(Oc2cc(F)cc(F)c2)c2c1C(O)C(F)(F)C2` (stereo not shown) [Compound 159, 4-(3,5-Difluorophenoxy)-2,2-difluoro-7-(methylsulfonyl)-2,3-dihydro-1H-inden-1-ol], the EC50 in test [1] (setting [3]) is 0.007 µM; in test [2] (setting [4]), 0.005 µM.
On the same counts, the results for `O=S(=O)(CF)c1ccc(Oc2cc(F)cc(F)c2)c2c1[C@H](O)C(F)(F)C2` [Compound 64, (S)-4-(3,5-Difluorophenoxy)-2,2-difluoro-7-((fluoromethyl)sulfonyl)-2,3-dihydro-1H-inden-1-ol] are 0.001 µM and 0.005 µM.
`O=S(=O)(c1ccc(Oc2cc(F)cc(F)c2)c2c1C(O)C(F)(F)C2)C(F)F` (stereo not shown) [Compound 9, 7-(difluoromethylsulfonyl)-4-(3,5-difluorophenoxy)-2,2-difluoro-indan-1-ol]: the figures for the EC50 in test [1] (setting [3]) and in test [2] (setting [4]) were 0.006 µM and 0.009 µM, respectively.
On the same counts, the results for `CS(=O)(=O)c1ccc(Oc2cc(F)cc(C#N)c2)c2c1[C@H](O)C(F)(F)[C@@H]2F` [Compound 292, 3-fluoro-5-[(1S,3R)-2,2,3-trifluoro-1-hydroxy-7-methylsulfonyl-indan-4-yl]oxy-benzonitrile] are 0.0062 µM and 0.0031 µM.
On the same counts, the results for `O=S(=O)(CF)c1ccc(Oc2cc(F)c(F)c(F)c2)c2c1[C@H](O)C(F)(F)C2` [Compound 188, (S)-2,2-Difluoro-7-((fluoromethyl)sulfonyl)-4-(3,4,5-trifluorophenoxy)-2,3-dihydro-1H-inden-1-ol] are 0.088 µM and 0.051 µM.
The corresponding values for `CS(=O)(=O)c1ccc(Oc2cncc(C#N)c2)c2c1[C@H](O)C(F)(F)[C@@H]2F` [Compound 342, 5-(((1S,3R)-2,2,3-trifluoro-1-hydroxy-7-(methylsulfonyl)-2,3-dihydro-1H-inden-4-yl)oxy)nicotinonitrile] are 0.052 µM and 0.091 µM.
As to `O=S(=O)(CF)c1ccc(Oc2cc(F)cc(F)c2)c2c1[C@H](O)CC2` [Compound 60, (R)-4-(3,5-Difluorophenoxy)-7-((fluoromethyl)sulfonyl)-2,3-dihydro-1H-inden-1-ol], the EC50 in test [1] (setting [3]) is 0.04 µM; in test [2] (setting [4]), 0.066 µM.
On the same counts, the results for `CS(=O)(=NC#N)c1ccc(Oc2cc(F)cc(C#N)c2)c2c1[C@H](O)C(F)(F)[C@@H]2F` (single isomer, unassigned) [Compound 316] are 0.017 µM and 0.012 µM.
The corresponding values for `CS(=O)(=NC#N)c1ccc(Oc2cc(F)cc(F)c2)c2c1C(O)C(F)(F)C2` (stereo not shown) [Compound 191, N-((7-(3,5-difluorophenoxy)-2,2-difluoro-3-hydroxy-2,3-dihydro-1H-inden-4-yl)(methyl)(oxo)-λ^6-sulfanylidene)cyanamide] are 0.13 µM and 0.053 µM.
Consider `O=S(=O)(c1ccc(Oc2cc(F)cc(F)c2)c2c1[C@H](O)CC2)C(F)F` [Compound 2, (R)-7-((Difluoromethyl)sulfonyl)-4-(3,5-difluorophenoxy)-2,3-dihydro-1H-inden-1-ol], for which the EC50 was 0.062 µM in test [1] (setting [3]) and 0.07 µM in test [2] (setting [4]).
With `N#Cc1cncc(Oc2ccc(S(=O)(=O)C(F)(F)F)c3c2C[C@@H](F)[C@H]3O)c1` [Compound 225, 5-(((1S,2R)-2-Fluoro-1-hydroxy-7-((trifluoromethyl)sulfonyl)-2,3-dihydro-1H-inden-4-yl)oxy)nicotinonitrile], the EC50 is 0.069 µM in test [1] (setting [3]) and 0.025 µM in test [2] (setting [4]).
On the same counts, the results for `N#Cc1cc(Oc2ccc(S(=O)(=O)C(F)(F)F)c3c2CC(F)(F)[C@H]3O)c[n+]([O-])c1` [Compound 267, (S)-3-cyano-5-((2,2-difluoro-1-hydroxy-7-((trifluoromethyl)sulfonyl)-2,3-dihydro-1H-inden-4-yl)oxy)pyridine 1-oxide] are 0.83 µM and 0.16 µM.
`O=S(=O)(c1ccc(Oc2cc(F)cc(Cl)c2)c(C(F)F)c1)C(F)(F)F` [Compound 124, 1-(3-Chloro-5-fluorophenoxy)-2-(difluoromethyl)-4-((trifluoromethyl)sulfonyl)benzene]: the EC50 turned out to be 0.4 µM in test [1] (setting [5]) and 0.33 µM in test [2].
For `O=S(=O)(c1ccc(Oc2cncc(Cl)c2)c2c1[C@H](O)C(F)(F)C2)C(F)(F)F` [Compound 186, (S)-4-((5-Chloropyridin-3-yl)oxy)-2,2-difluoro-7-((trifluoromethyl)sulfonyl)-2,3-dihydro-1H-inden-1-ol], the EC50 stood at 0.013 µM in test [1] (setting [3]) and 0.011 µM in test [2] (setting [4]).
On the same counts, the results for `CS(=O)(=O)c1ccc(Oc2cc(F)cc(F)c2)c2c1[C@H](O)C(F)(F)C2` [Compound 161, (S)-4-(3,5-Difluorophenoxy)-2,2-difluoro-7-(methylsulfonyl)-2,3-dihydro-1H-inden-1-ol] are 0.011 µM and 0.004 µM.
On the same counts, the results for `N#Cc1cccc(Oc2ccc(S(=O)(=O)C(F)F)c3c2CC(F)(F)[C@H]3O)c1` [Compound 236, (S)-3-((7-((difluoromethyl)sulfonyl)-2,2-difluoro-1-hydroxy-2,3-dihydro-1H-inden-4-yl)oxy)benzonitrile] are 0.016 µM and 0.011 µM.
On the same counts, the results for `O=S(=O)(c1ccc(Oc2cc(F)cc(F)c2)c2c1[C@H](O)CC2)C(F)(F)F` [Compound 55, (R)-4-(3,5-Difluorophenoxy)-7-((trifluoromethyl)sulfonyl)-2,3-dihydro-1H-inden-1-ol] are 0.035 µM and 0.032 µM.
